# Source: patent publication US20240300980A1, “HETEROCYCLIC COMPOUNDS AS KRAS INHIBITOR, AND PREPARATION THEREFOR AND USE THEREOF IN TREATMENT” (SHANGHAI KECHOW PHARMA, INC., priority 2021, published 2024)
# pIC50: −log10 of the molar value.
# Tested on: AGS cells (KRAS^G12D)
# Assay: Detection of cell proliferation in vitro by MTT/MTS method (cell activity experiment)
# Assay type: cell-based
# Settings: Homo sapiens, AGS, 72 h, AGS cells; MTT/MTS; 3 days of drug treatment; read-out: AGS IC50
# Method: The above cells were cultured in a complete medium containing 10% fetal bovine serum, 100 IU/mL penicillin and 100 jag/mL streptomycin, in the aseptic incubator with 95% relative humidity and 5% CO2 concentration.
# 2. Reagents: F12K, D-PBS, FBS, Penicillin Streptomycin, Tryple, MTT (5 mg/mL)
# Appropriate amount of compound powder was weighed in a 1.5 mL centrifuge tube, then the corresponding volume of dimethyl sulfoxide (DMSO) was added to form a 20 mM reserve solution. The solution was packed separately and stored in a refrigerator at −20° C. away from light.
# The cells were inoculated in a cell culture bottle, added an appropriate amount of complete medium, and cultured in a sterile incubator. When the degree of cell confluence reached more than 80%, subculture was carried out.
# The adherent cells in logarithmic growth phase were digested by trypsin or the suspension cells were collected by centrifugation and counted. 90 μL cell suspension was inoculated into 96-well plate according to the cell inoculation density of 1000 cells per well, and 10 μL of 10-fold final concentration compound diluted by culture medium was added 24 hours later. Compared with the hole with the same volume of 5% DMSO as control, the final concentration of DMSO was 0.5%. After 3 days of drug treatment, the cell viability was detected by MTT. The specific methods are as follows: 10 μL MTT per well was added into the incubator for 4 hours, the supernatant was discarded and 150 μL DMSO was added to dissolve the crystal methylazan, and the absorbance of 490 nm was detected by enzyme labeling instrument, or 10 μL MITS per well was added to the incubator for 4 hours, and […] absorbance was detected directly by enzyme labeling instrument. GraphPad Prism 6 software makes dose-effect curve and calculates IC50.
row,Compound,pIC50
1,"CCC1CCCc2cc(O)cc(-c3ncc4c(N5C[C@H]6CC[C@@H](C5)N6)nc(OC[C@@]56CCCN5C[C@H](F)C6)nc4c3F)c21 (stereo partly drawn) [Example 227, 4-(4-((1R,5S)-3,8-diazabicyclo[3.2.1]octan-3-yl)-8-fluoro-2-(((2R,7aS)-2-fluorotetrahydro-1H-pyrrolizin-7a(5H)-yl)methoxy)pyrido[4,3-d]pyrimidin-7-yl)-5-ethyl-5,6,7,8-tetrahydronaphthalen-2-ol]",8.30
2,"C#Cc1c(F)ccc2cc(O)cc(-c3ccc4c(N5CC(C(C)N)C5)nc(OC[C@@]56CCCN5C[C@H](F)C6)nc4c3F)c12 (stereo partly drawn) [Example 213, 4-(4-(3-(1-aminoethyl)azetidin-1-yl)-8-fluoro-2-(((2R,7aS)-2-fluorotetrahydro-1H-pyrrolizin-7a(5H)-yl)methoxy)quinazolin-7-yl)-5-ethynyl-6-fluoronaphthalen-2-ol]",< 5.60
3,"C#Cc1cccc2cc(O)cc(-c3ccc4c(N5C[C@H]6CC[C@@H](C5)N6)nc(OC[C@@]56CCCN5C[C@H](F)C6)nc4n3)c12 [Example 144, 4-(4-((1R,5S)-3,8-diazabicyclo[3.2.1]octan-3-yl)-2-(((2R,7aS)-2-fluorotetrahydro-1H-pyrrolizin-7a(5H)-yl)methoxy)pyrido[2,3-d]pyrimidin-7-yl)-5-ethynylnaphthalen-2-ol]",< 5.60
4,"N#Cc1c(OC[C@@]23CCCN2C[C@H](F)C3)nc2c(F)c(-c3cc(O)cc4cccc(F)c34)ncc2c1N1C[C@H]2CC[C@@H](C1)N2 [Example 194, 4-((1R,5S)-3,8-diazabicyclo[3.2.1]octan-3-yl)-8-fluoro-7-(8-fluoro-3-hydroxynaphthalen-1-yl)-2-(((2R,7aS)-2-fluorotetrahydro-1H-pyrrolizin-7a(5H)-yl)methoxy)-1,6-naphthyridine-3-carbonitrile]",6.82
5,"CCc1cccc2cc(O)cc(-c3ncc4c(N5C[C@H]6CC[C@@H](C5)N6)c(C#N)c(OC[C@@]56CCCN5C[C@H](F)C6)nc4c3F)c12 [Example 190, 4-((1R,5S)-3,8-diazabicyclo[3.2.1]octan-3-yl)-7-(8-ethyl-3-hydroxynaphthalen-1-yl)-8-fluoro-2-(((2R,7aS)-2-fluorotetrahydro-1H-pyrrolizin-7a(5H)-yl)methoxy)-1,6-naphthyridine-3-carbonitrile]",6.82
6,"C#Cc1c(F)ccc2cc(O)cc(-c3ccc4c(N5CC6CC(C5)N6)nc(OC[C@@]56CCCN5C[C@H](F)C6)nc4c3F)c12 [Example 107, 4-(4-(3,6-diazabicyclo [3.1.1]heptan-3-yl)-8-fluoro-2-(((2R,7aS)-2-fluorotetrahydro-1H-pyrrolizin-7a(5H)-yl)methoxy)quinazolin-7-yl)-5-ethynyl-6-fluoronaphthalen-2-ol]",6.98
7,"C#Cc1cccc2cc(O)cc(-c3ncc4c(N5CCC6(CCCN6)CC5)nc(OC[C@@]56CCCN5C[C@H](F)C6)nc4c3F)c12 [Example 48, 5-ethynyl-4-(8-fluoro-2-(((2R,7aS)-2-fluorotetrahydro-1H-pyrrolizin-7a(5H)-yl)methoxy)-4-(1,8-diazaspiro[4.5]decan-8-yl)pyrido[4,3-d]pyrimidin-7-yl) naphthalen-2-ol]",5.29
8,"CC[C@H]1CCc2cc(O)cc(-c3ncc4c(N5CC6CCC(C5)N6)nc(OC[C@@]56CCCN5C[C@H](F)C6)nc4c3F)c21 (single isomer, unassigned) [Example 222, (S)-7-(4-((1R,5S)-3,8-diazabicyclo[3.2.1]octan-3-yl)-8-fluoro-2-(((2R,7aS)-2-fluorotetrahydro-1H-pyrrolizin-7a(5H)-yl)methoxy)pyrido[4,3-d]pyrimidin-7-yl)-1-ethyl-2,3-dihydro-1H-inden-5-ol or (R)-7-(4-((1R,5S)-3,8-diazabicyclo[3.2.1]octan-3-yl)-8-fluoro-2-(((2R,7aS)-2-fluorotetrahydro-1H-pyrrolizin-7a(5H)-yl)methoxy)pyrido[4,3-d]pyrimidin-7-yl)-1-ethyl-2,3-dihydro-1H-inden-5-ol]",8.60
9,"C#CC1CCCc2cc(O)cc(-c3ncc4c(N5C[C@H]6CC[C@@H](C5)N6)nc(OC[C@@]56CCCN5C[C@H](F)C6)nc4c3F)c21 (stereo partly drawn) [Example 248, 4-(4-((1R,5S)-3,8-diazabicyclo[3.2.1]octan-3-yl)-8-fluoro-2-(((2R,7aS)-2-fluorotetrahydro-1H-pyrrolizin-7a(5H)-yl)methoxy)pyrido[4,3-d]pyrimidin-7-yl)-5-ethynyl-5,6,7,8-tetrahydronaphthalen-2-ol]",8.17
10,"CCc1c(F)ccc2cc(O)cc(-c3ccc4c(N5C[C@H]6CC[C@@H](C5)N6)c(C(F)(F)F)c(OC[C@@]56CCCN5C[C@H](F)C6)nc4c3F)c12 [Example 186, 4-(4-((1R,5S)-3,8-diazabicyclo[3.2.1]octan-3-yl)-8-fluoro-2-(((2R,7aS)-2-fluorotetrahydro-1H-pyrrolizin-7a(5H)-yl)methoxy)-3-(trifluoromethyl)quinolin-7-yl)-5-ethyl-6-fluoronaphthalen-2-ol]",5.85
11,"CCc1c(F)ccc2cc(O)cc(-c3ccc4c(N5C[C@H]6CC[C@@H](C5)N6)nc(OC[C@]56CCCN5[C@@H](COC(=O)N(C)C)CC6)nc4n3)c12 [Example 146, ((3R,7aR)-7a-(((4-((1R, 5S)-3,8-diazabicyclo [3.2.1]octan-3-yl)-7-(8-ethyl-7-fluoro-3-hydroxynaphthalen-1-yl)pyrido[2,3-d]pyrimidin-2-yl)oxy)methyl)hexahydro-1H-pyrrolizin-3-yl)methyl dimethylcarbamate]",< 5.60
12,"C/C=C1\C(=O)Cc2cc(O)cc(-c3ncc4c(N5C[C@H]6CC[C@@H](C5)N6)nc(OC[C@@]56CCCN5C[C@H](F)C6)nc4c3F)c21 [Example 264, (Z)-7-(4-((1R,5S)-3,8-diazabicyclo[3.2.1]octan-3-yl)-8-fluoro-2-(((2R,7aS)-2-fluorotetrahydro-1H-pyrrolizin-7a(5H)-yl)methoxy)pyrido[4,3-d]pyrimidin-7-yl)-1-ethylidene-5-hydroxy-1,3-dihydro-2H-inden-2-one]",< 5.00
13,"CCc1c(F)ccc2cc(O)cc(-c3ccc4c(N5C[C@H]6CC[C@@H](C5)N6)nc(OC[C@@]56CCCN5C[C@H](F)C6)nc4c3F)c12 [Example 92, 4-(4-((1R,5S)-3,8-diazabicyclo[3.2.1]octan-3-yl)-8-fluoro-2-(((2R,7aS)-2-fluorotetrahydro-1H-pyrrolizin-7a(5H)-yl)methoxy)quinazolin-7-yl)-5-ethyl-6-fluoronaphthalen-2-ol]",8.57
14,"O=C1CCc2cc(O)cc(-c3ncc4c(N5C[C@H]6CC[C@@H](C5)N6)nc(OC[C@@]56CCCN5C[C@H](F)C6)nc4c3F)c21 [Example 250, 7-(4-((1R,5S)-3,8-diazabicyclo[3.2.1]octan-3-yl)-8-fluoro-2-(((2R,7aS)-2-fluorotetrahydro-1H-pyrrolizin-7a(5H)-yl)methoxy)pyrido[4,3-d]pyrimidin-7-yl)-5-hydroxy-2,3-dihydro-1H-inden-1-one]",< 5.60
15,"CCC1CCc2cc(O)cc(-c3c(F)c4nc(OC[C@@]56CCCN5C[C@H](F)C6)nc(N5C[C@H]6CC[C@@H](C5)N6)c4c4cncn34)c21 (stereo partly drawn) [Example 418, 7-(1-((1R,5S)-3,8-diazabicyclo[3.2.1]octan-3-yl)-5-fluoro-3-(((2R,7aS)-2-fluorotetrahydro-1H-pyrrolizin-7a(5H)-yl)methoxy)imidazo[1′,5′:1,2]pyrido[4,3-d]pyrimidin-6-yl)-1-ethyl-2,3-dihydro-1H-inden-5-ol]",7.12
16,"CN1CCCc2cc(O)cc(-c3ncc4c(N5C[C@H]6CC[C@@H](C5)N6)nc(OC[C@@]56CCCN5C[C@H](F)C6)nc4c3F)c21 [Example 359, 8-(4-((1R,5S)-3,8-diazabicyclo[3.2.1]octan-3-yl)-8-fluoro-2-(((2R,7aS)-2-fluorotetrahydro-1H-pyrrolizin-7a(5H)-yl)methoxy)pyrido[4,3-d]pyrimidin-7-yl)-1-methyl-1,2,3,4-tetrahydroquinolin-6-ol]",7.46
17,"C#Cc1c(F)ccc2cc(O)cc(-c3ncc4c(-c5cn(C(=O)CO)cn5)nc(OC[C@@]56CCCN5C[C@H](F)C6)nc4c3F)c12 [Example 88, 1-(4-(7-(8-ethynyl-7-fluoro-3-hydroxynaphthalen-1-yl)-8-fluoro-2-(((2R, 7aS)-2-fluorotetrahydro-1H-pyrrolizin-7a(5H)-yl)methoxy)pyrido[4,3-d]pyrimidin-4-yl)-1H-imidazol-1-yl)-2-hydroxyethan-1-one]",< 5.00
18,"[O-][S+]1C2CCC1CN(c1nc(OC[C@@]34CCCN3C[C@H](F)C4)nc3c(F)c(-c4cc(O)cc5cccc(F)c45)ccc13)C2 (stereo partly drawn) [Example 168, (1R,5S,8R)-3-(8-fluoro-7-(8-fluoro-3-hydroxynaphthalen-1-yl)-2-(((2R,7aS)-2-fluorotetrahydro-1H-pyrrolizin-7a(5H)-yl)methoxy)quinazolin-4-yl)-8-thia-3-azabicyclo[3.2.1]octane 8-oxide]",< 5.60
19,"Oc1cc(-c2ccc3c(N4C[C@H]5CC[C@@H](C4)N5)nc(OC[C@@]45CCCN4C[C@H](F)C5)nc3c2)c2c(F)c(F)ccc2c1 [Example 150, 4-(4-((1R,5S)-3,8-diazabicyclo[3.2.1]octan-3-yl)-2-(((2R, 7aS)-2-fluorotetrahydro-1H-pyrrolizin-7a(5H)-yl)methoxy)quinazolin-7-yl)-5,6-difluoronaphthalen-2-ol]",6.48
